Literature values in patent US20120148649A1, “COMPOSITION FOR RESTORATION OF AGE RELATED TISSUE IN THE FACE OR SELECTED AREAS OF THE BODY” (priority 2004, published 2012).

Assays:
tumor growth = conditions: deuterium concentration from 0.1 to 110 ppm; animal model studies
cancer patients = conditions: human clinical trials, hundreds of cancer patients

deuterium depleted water
effect on tumor growth (tumor growth): inhibits tumor growth
effect on life span of cancer patients (cancer patients): extended life span
